Experimental findings from US20040086949A1, “Method for preparing a ligand presenting assembly (LPA), an LPA and uses thereof” (Statens Serum Institut, priority 1998, published 2004) are described below.

Assay [1] has as its system C-terminal B-cell epitope of OspC. Briefly: Immunogenicity of LPA-VI in mice, serum Ig ELISA against recombinant OspC and LPA-I. In kind it is in vivo. As to conditions: five female C57 black mice, 5 μg i.p. on days 0 and 14 with Al(OH)3 and Freund's incomplete adjuvant, sera diluted 200 fold. As to the method: The capability of an LPA according to the present invention to induce a humoral immune response was studied by immunising mice with LPA-VI. Five female C57 black mice (age 6 to 8 weeks) were immunised two times intraperitoneally with a 2-week interval and were bled on days 0, 14, and 28. Each immunisation dose contained. 5 μg of LPA-VI dissolved in 0.25 ml 0.9% NaCl and supplemented with 1 mg Al(OH)3 (Superfos Biosector, Denmark) and 0.25 ml Freund's incomplete adjuvant. The serum samples were diluted 200 fold and then tested by ELISA for Ig reactivity against OspC produced on recombinant form (WO 97/42221) and LPA-I (FIG. 8).
FIG. 8. Mean ELISA titer of sera from five mice immunised with LPA-VI on days 0 and 14. The microdilution plates were coated with LPA-I (diamond) or recombinant OspC (Squares), and the sera were analysed in a 200-fold dilution.

In assay [2] the test system is IgM antibodies in sera from patients with neuroborreliosis. Briefly: Indirect IgM-ELISA with LPA-I or biotinylated-pepC10 as coated antigen. The format is binding, human. The conditions noted are these: NB sera (n = 97), sera diluted 1/200, 98% specific cut-off. The method, then: The capability of LPA-I according to the present invention to react with sera from patients with neuroborreliosis was evaluated against that of an ELISA based on biotinylated-pepC10, wherein pepC10 is identical to the amino acid sequence of Seq. ID 1.
Preparing plates for the LPA-I-ELISA: Microtiter plates (Maxisorb; Nunc, Roskilde, Denmark) were coated overnight at 4° C. with 0.6 μg/ml of LPA-I diluted in 0.05 M bicarbonate pH 9.6, blocked with 3% (w/v) milk powder in phosphate-buffered saline (PBS) for 1 h, and reacted with sera diluted 1/200 in 1% (w/v) milk powder in PBS containing 0.05% Tween 20 (PBST) and 0.7 M NaCl for 2 h. The secondary antibody was a peroxidase conjugated rabbit anti-human IgM (Dako, Denmark, codes P-215) diluted 1/1000 in 1% (w/v) milk powder in PBST. After 1 h of incubation, bound secondary antibody was quantitated by colouring with o-phenylenediamine and H2O2 in citrate buffer (Sigma, St. Louis, Mo.) for 30 min. Optical density (OD) at 492 nm was determined in a plate reader (EAR 400 AC-SLT, Labinstruments, Austria). Plates were washed extensively with PBST-0.5M NaCl between each incubation step. The 98% specific diagnostic cut-off level was OD of 0.270 for IgM detection.
Preparing plates for the biotinylated-pepC10-ELISA: ELISAs with biotinylated-pepC10, were performed essentially as described above for LPA-I, except that microtiter plates were first coated with streptavidin (2.5 μg/ml) (Zymed, S. Avidinii) in citrate buffer (pH 5) overnight at 4° C., and then incubated with biotinylated pepC10 (0.1 μg/ml) in 1% (w/v) milk powder in PBST-0.37 M NaCl overnight at 4° C.
(i) Sera from 97 Danish patients with neuroborreliosis (NB). All patients had been hospitalised in 1994 ([…] between 4 and 80 years of age; median age, 49). The selection was based on a positive test for B. burgdorferi specific intrathecal antibody synthesis. The diagnosis was further corroborated by the presence of lymphocytic pleocytosis in CSF (median cell count, 124/μl) and one of the following manifestations: lymphocytic meningoradiculitis with typical painful radiculitis, mononeuritis multiplex (Bannwarth's syndrome), radiculomyelitis, monosymptomatic fascialis paresis (all children), subacute lymphocytic meningitis, and chronic progressive encephalomyelitis. Of the 100 patients, 48 recalled a previous EM-like skin lesion. Disease duration, defined as the time from onset of neurological symptoms until diagnostic blood and CSF samples were taken, ranged from 1 week to 26 weeks (median duration, 3 weeks).
Sera from 80 healthy controls were used for determination of the 98%-specific cut-off level in ELISAs.

Ends that are not written are not given here.

On to “(HO-ProLysLysProSerGluAlaValValPro-COCH2)2N-Lys(AlaSerAlaAlaAlaGluIleGlyAlaPheAsnTrpGlnGlnGluThrMet-H)2 [LPA-VI]”, for which, in assay [1], the “induction of antibodies against the C-terminal B-cell epitope of OspC” value is “highly effective in inducing antibodies”.
With “FmocN(CH2CO-ProValValAlaGluSerProLysLysPro-OH)2 [LPA-I]”, in assay [2], the “% of IgM reactive sera (frequency of positive Lyme borreliosis sera)” value worked out at 42.3% and the “No. of IgM reactive sera” value stood at 41.
As for “biotinylated-pepC10: biotinylated peptide; pepC10 is identical to the amino acid sequence of Seq. ID 1 (ProValValAlaGluSerProLysLysPro), bound to streptavidin-coated plates (PVVAESPKKP; also: biotinylated, place not given here) [reference compound]”, in assay [2], the “% of IgM reactive sera (frequency of positive Lyme borreliosis sera)” value was 43.3% and the “No. of IgM reactive sera” value was found to be 42.
